Test results: the CheMixHub viscosity set
Values joined by “and” are separate entries in the source; they are usually repeats but may differ in a detail not shown here. Identical values can stand only once.

Assay: xn = mol fraction of the nth substance listed

CC(=O)O + CC(C)=O
viscosity [mPa·s], 101 kPa
Conditions	293.15 K	298.15 K	303.15 K	313.15 K
x1 = 0.0996	–	0.3496	–	–
x1 = 0.13	0.3909	–	0.3546	0.3238
x1 = 0.2035	–	0.4046	–	–
x1 = 0.222	0.4389	–	0.3976	0.3607
x1 = 0.302	0.4916	–	0.4411	0.3993
x1 = 0.3025	–	0.4636	–	–
x1 = 0.4025	0.5632	–	0.5015	0.4518
x1 = 0.4049	–	0.535	–	–
x1 = 0.4986	–	0.6098	–	–
x1 = 0.5066	0.6549	–	0.5766	0.5138
x1 = 0.5973	–	0.6994	–	–
x1 = 0.605	0.7515	–	0.6562	0.5817
x1 = 0.6968	–	0.8024	–	–
x1 = 0.6994	0.8612	–	0.7482	0.6564
x1 = 0.8015	–	0.9213	–	–
x1 = 0.805	0.9881	–	0.8527	0.7437
x1 = 0.9011	1.103	–	0.9472	0.8218
x1 = 0.9037	–	1.036	–	–

CCCCCCCCCCCCCCCC(=O)O + CC(C)[C@@H]1CC[C@@H](C)C[C@H]1O
100 kPa, x1 = 0.15
Conditions	viscosity [mPa·s]
313.15 K	15.25
318.15 K	11.78
323.15 K	9.29

ClCCCl + C1CCOC1
303.15 K, 101 kPa
Conditions	viscosity [mPa·s]
x2 = 0.0815	0.7038
x2 = 0.1436	0.6852
x2 = 0.2414	0.6571
x2 = 0.3055	0.6394
x2 = 0.4137	0.6105
x2 = 0.5015	0.5879
x2 = 0.6095	0.5606
x2 = 0.7289	0.5307
x2 = 0.8142	0.5097
x2 = 0.9176	0.485

CCC[n+]1ccn(C)c1.N[C@@H](CO)C(=O)[O-] + O
Conditions	viscosity [mPa·s]
308.15 K, 100 kPa, x2 = 0.0574	996.5

C1CCC2=[NH+]CCCN2CC1.c1c[n-]cn1 + CN(C)C=O
298.15 K, 100 kPa
Conditions	viscosity [mPa·s]
x1 = 0.0998	1.496
x1 = 0.1996	2.353
x1 = 0.2995	3.64
x1 = 0.3994	5.34
x1 = 0.4994	7.345
x1 = 0.5994	10.26
x1 = 0.6995	14.27
x1 = 0.7996	19.37
x1 = 0.8998	25.32

CCC(C)Br (configuration not stated) + CC(C)CO
viscosity [mPa·s], 101.3 kPa
Conditions	298.15 K	313.15 K
x1 = 0.0474	2.895	1.857
x1 = 0.102	2.431	1.596
x1 = 0.203	1.813	1.244
x1 = 0.3032	1.407	1.007
x1 = 0.4043	1.126	0.8382
x1 = 0.5066	0.9316	0.7176
x1 = 0.6053	0.7983	0.6315
x1 = 0.7043	0.7016	0.5696
x1 = 0.803	0.6311	0.5215
x1 = 0.8948	0.5854	0.4887
x1 = 0.9318	0.5716	0.4796

ClCCl + COCCOCCOC
298.15 K, 101.33 kPa
Conditions	viscosity [mPa·s]
x2 = 0.097	0.546
x2 = 0.1505	0.593
x2 = 0.2008	0.636
x2 = 0.2942	0.711
x2 = 0.3997	0.79
x2 = 0.4508	0.817
x2 = 0.5008	0.843
x2 = 0.5555	0.87
x2 = 0.598	0.891
x2 = 0.6948	0.921
x2 = 0.7543	0.938
x2 = 0.8003	0.955
x2 = 0.8967	0.975
x2 = 0.9205	0.98

ClCCl + COc1ccccc1
303.15 K, 101.3 kPa
Conditions	viscosity [mPa·s]
x2 = 0.069	0.425
x2 = 0.321	0.527
x2 = 0.357	0.54
x2 = 0.4045	0.567
x2 = 0.6109	0.665
x2 = 0.658	0.688
x2 = 0.8807	0.82

CC(=O)O + CCOC(C)=O
viscosity [mPa·s], 101 kPa
Conditions	298.15 K	313.15 K
x1 = 0.1049	0.459	–
x1 = 0.207	0.4949	–
x1 = 0.3037	0.5331	–
x1 = 0.399	0.5762	–
x1 = 0.4985	0.6289	–
x1 = 0.5996	0.689	–
x1 = 0.6988	0.7668	–
x1 = 0.8011	0.859	–
x1 = 0.8742	0.943	–
x2 = 0.102	0.97	0.791
x2 = 0.2035	0.867	0.707
x2 = 0.3037	0.771	0.634
x2 = 0.4101	0.697	0.579
x2 = 0.4979	0.644	0.538
x2 = 0.6006	0.582	0.488
x2 = 0.6962	0.543	0.454
x2 = 0.7971	0.499	0.419
x2 = 0.9048	0.46	0.388

O=C[C@H](O)[C@@H](O)[C@@H](O)[C@H](O)CO + O
viscosity
Conditions	298.15 K	308.15 K
101 kPa, x1 = 0.0002	0.9056 mPa·s and 0.9056 mPa·s	–
101 kPa, x1 = 0.001	0.9592 mPa·s and 0.9592 mPa·s	–
101 kPa, x1 = 0.0018	0.9761 mPa·s and 0.9761 mPa·s	–
101 kPa, x1 = 0.002	0.9675 mPa·s and 0.9675 mPa·s	–
101 kPa, x1 = 0.003502	0.971 mPa·s	–
101 kPa, x1 = 0.00393	0.9552 mPa·s	0.814 mPa·s
101 kPa, x1 = 0.00634	1.043 mPa·s	0.8355 mPa·s
101 kPa, x1 = 0.01867	1.505 mPa·s	–
101.3 kPa, x1 = 0.02116	1.511 mPa·s	–

CCC(C)Br (configuration not stated) + CCCCO
viscosity [mPa·s], 101.3 kPa
Conditions	x1 = 0.1031	x1 = 0.2031	x1 = 0.3016	x1 = 0.4044	x1 = 0.5054	x1 = 0.5983	x1 = 0.7019	x1 = 0.8026	x1 = 0.9
298.15 K	2.035	1.634	1.325	1.097	0.9278	0.8012	0.7037	0.6308	0.5835
313.15 K	1.426	1.174	0.9794	0.8345	0.7206	0.6389	0.5736	0.523	0.4876

CCOC(N)=O + O
viscosity [mPa·s], 101.33 kPa
Conditions	x1 = 0.01112	x1 = 0.02393	x1 = 0.03411	x1 = 0.0497	x1 = 0.06189	x1 = 0.07566	x1 = 0.1253
293.15 K	1.122	1.253	1.356	1.505	1.618	1.743	2.156
298.15 K	0.9919	1.102	1.191	1.314	1.409	1.513	1.86

ClCCCl + CCCCCCCO
303.15 K, 101 kPa
Conditions	viscosity [mPa·s]
x2 = 0.1082	0.852
x2 = 0.1749	0.918
x2 = 0.3034	1.082
x2 = 0.456	1.415
x2 = 0.5496	1.752
x2 = 0.622	2.078
x2 = 0.7978	3.174
x2 = 0.8642	3.699
x2 = 0.9346	4.286

ClCCl + ClC(Cl)(Cl)Cl
Conditions	viscosity [mPa·s]
303.15 K, 101.3 kPa, x2 = 0.506	0.5396

C1CCCCCC1 + C1CCCCC1
303.15 K, 101 kPa
Conditions	viscosity [mPa·s]
x2 = 0.1425	1.16
x2 = 0.2998	1.085
x2 = 0.4978	1.003
x2 = 0.6947	0.9296
x2 = 0.8482	0.8767

ClCCl + CCCCOCCO
298.15 K, 101.3 kPa
Conditions	viscosity [mPa·s]
x1 = 0.0185	2.77
x2 = 0.0035	0.408
x2 = 0.0112	0.413
x2 = 0.0303	0.43
x2 = 0.0521	0.451
x2 = 0.1008	0.503
x2 = 0.1533	0.578
x2 = 0.2175	0.671
x2 = 0.293	0.807
x2 = 0.362	0.943
x2 = 0.4346	1.11
x2 = 0.5707	1.482
x2 = 0.6642	1.753
x2 = 0.7875	2.148
x2 = 0.9049	2.525
